This note sets out measurements from patent US9801872B2, “Pyridinyl and fused pyridinyl triazolone derivatives” (Takeda Pharmaceutical Company Limited, priority 2013, dated 2017).

Structures are written as SMILES. A value given as a limit tells only on which side of the number the result lay.

human BTK, sequence (Q06187 382-659): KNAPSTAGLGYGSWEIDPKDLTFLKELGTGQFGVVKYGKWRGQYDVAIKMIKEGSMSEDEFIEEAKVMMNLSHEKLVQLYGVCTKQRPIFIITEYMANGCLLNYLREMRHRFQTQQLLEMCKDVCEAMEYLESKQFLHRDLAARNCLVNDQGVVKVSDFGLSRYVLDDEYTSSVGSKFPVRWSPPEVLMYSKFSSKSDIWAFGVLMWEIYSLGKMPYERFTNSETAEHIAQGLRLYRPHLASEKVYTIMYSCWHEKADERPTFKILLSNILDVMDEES

The assay concerns the target human BTK (Homo sapiens (Human), UniProt Q06187). Nature of the assay: BTK inhibition: BTK-mediated phosphorylation of FAM-labeled substrate 5-FAM-[…]-NH2 (Caliper LC-3000). The note with it: residues 382 to 659 of human BTK; 60 minutes at room temperature; pIC50 = -log(IC50), IC50 molar. It is filed as biochemical. An excerpt:
The activity of compounds as BTK inhibitors may be determined by a variety of methods, including in vitro and in vivo methods.
This construct engineers an in-frame translational fusion with the Glutathione-S-Transferase (GST) protein for use in affinity purification. The fusion protein derived from this construct contains a protease recognition sequence to liberate the BTK from the GST affinity tag. High-titer baculoviral stocks, generated using the Bac-to-Bac® system (Invitrogen), are used to express the recombinant protein in Spodoptera frugiperda Sf9 cells in 10 L Wave bags. Recombinant proteins are isolated from cellular extracts by passage over Glutathione Sepharose 4B (GE Healthcare) and the BTK moiety is released from the GST affinity tag by treatment with PreScission protease. The BTK recombinant protein is further purified by size exclusion chromatography (HiLoad 16/60 Superdex 200, GE Healthcare) in a buffer containing 20 mM Hepes (pH 7.4), 50 mM NaCl, 10 mM MgCl2, 0.25 mM TCEP and 0.1 mM EDTA. The purity of the fractions is assessed by SDS PAGE and the peak protein fractions are pooled and concentrated using Amicon Ultra-15 Centrifugal Filter Devices (Millipore).
The inhibitory properties of compounds relative to BTK is determined using a black 384-well-plate format in a buffer which contains 50 mM Hepes, 10 mM NaCl, 10 mM MgCl2, 0.2 mM EDTA, 0.01% Brij35®, 1 mM DTT, and 0.1 mg/mL BSA at pH 7.3. The test compound is prepared in DMSO using 2-fold serial dilutions for 11 data points, which are added to the buffer so that each dilution contains 3% DMSO. […] The reaction mixtures are incubated at room temperature for 60 minutes and then quenched by adding 25 μL of 50 mM EDTA. To quantify the fluorescent-labeled substrate and product following reaction, the test plate is loaded on a Caliper LC-3000, which measures percent of conversion by microfluidic-based separation.
The compounds were tested in accordance with the assay described on page 42 of the specification.
As for `O=C(CCl)N1CC[C@H](Nc2nc(-c3n[nH]c(=O)[nH]3)cc3ccccc23)C1` [Example 34, (S)-5-(1-((1-(2-chloroacetyl)pyrrolidin-3-yl)amino)isoquinolin-3-yl)-2,4-dihydro-3H-1,2,4-triazol-3-one], the “BTK Inhibition (pIC50)” value is given as greater than 8.6.

Regarding `C=CC(=O)N1CC[C@H](Nc2nc(-c3n[nH]c(=O)[nH]3)cc3cccc(Cl)c23)C1` [Example 28, (S)-3-(1-((1-acryloylpyrrolidin-3-yl)amino)-8-chloroisoquinolin-3-yl)-1H-1,2,4-triazol-5(4H)-one], the “BTK Inhibition (pIC50)” value is greater than 8.6.

For `C=CC(=O)N1CCC[C@@H]1COc1nc(-c2n[nH]c(=O)[nH]2)cc2ccccc12` [Example 9, (R)-3-(1-((1-acryloylpyrrolidin-2-yl)methoxy)isoquinolin-3-yl)-1H-1,2,4-triazol-5(4H)-one], the “BTK Inhibition (pIC50)” value is recorded as greater than 7.9.
